According to PMC4473678, “Swedish mutant APP-based BACE1 binding site peptide reduces APP β-cleavage and cerebral Aβ levels in Alzheimer’s mice” (Scientific Reports, 2015):
Entries after “also recorded” stand apart in the source; their conditions may differ.

Columns and labels:
5XFAD mice [1] = experiment: WB of APP processing products in brain homogenates, 5XFAD mice; type: in vivo, mouse; details: 8 weeks
Procedure: (§1) Transgenic AD mice [5XFAD; B6SJL-Tg(APPSwFlLon,PSEN1*M146L*L286V) 6799Vas/Mmjax] at 2.5 months of age were obtained from the Jackson Laboratory (Bar Harbor, ME) and housed and maintained in the Animal Facility of College of Medicine at University of South Florida (USF). The mice at 3.5 months of age were treated with TAT-APPsweBBP, TAT peptide (100 nmol/kg in 100 μL PBS) or PBS (100 μL) daily by intraperitioneal injection (i.p.) for eight consecutive weeks. The mice were subjected to behavioral testing after 8-week treatment and then euthanized for immunohistochemical, WB and ELISA analyses. Animals were housed and maintained at USF and all experiments were in compliance with protocols approved by USF Institutional Animal Care and Use Committee. All methods were performed in accordance with relevant guidelines and regulations.
WB analysis was performed as previously described. Briefly, the proteins from the various cell-free suspensions, cell lysates and brain homogenates were electrophoretically separated using 10% bicine/tris gel (8 M urea) for proteins less than 5 kD or 10% tricine/tris gels for larger proteins. Electrophoresed proteins were transferred to polyvinylidene difluoride membranes (Bio-Rad, Richmond, CA), washed and blocked for 2 h at room temperature in Tris-buffered saline containing 5% (w/v) nonfat dry milk (TBS/NFDM). After blocking, membranes were hybridized for 2 h with various primary antibodies, washed and incubated for 1 h with the appropriate HRP-conjugated secondary antibody in TBS/NFDM. Blots were developed using the luminol reagent (Thermo Fisher Scientific, Waltham, MA).

5XFAD mice [2] = experiment: Rotarod test, 5XFAD mice; type: in vivo, mouse; details: 100 nmol/kg i.p. daily, 8 weeks, n = 10 per treatment, listed as TAT-APPsweBBP
Procedure: as §1
The rotarod task was also performed to exclude the possibility that positive effects of any treatment in RAWM test are due to improvements in sensorimotor ability. Mice were positioned on the rod (diameter 3.6 cm) of the equipment (Rotarod 7650 accelerating model; Ugo Basile, Biological Research Apparatus, Varese, Italy), which was initially set at 1.0 rpm. The rod was then allowed to steadily accelerate up to 40.0 rpm over a 3-min session and evaluation was made by monitoring latency to fall.

[3] = test system: recombinant BACE1 protein; experiment: Immunoprecipitation/WB of peptide-BACE1 binding, cell-free; details: 10 μg biotin-labeled peptide with 10 μL recombinant BACE1 (1.0 U/mL), 4 h, 37 °C; anti-BACE1 IP/anti-biotin WB and reverse; listed as TAT-APPsweBBP
Procedure: In order to confirm that APPsweBBP containing the β-cleavage site could bind to and be consequently proteolyzed by BACE1, 10 μg of biotin-labeled TAT-APPsweBBP was incubated with or without 10 μL of recombinant BACE1 protein (1.0 U/mL) in BACE1 reaction buffer for 4 h at 37 °C and then subjected to WB analysis as described previously. In addition, we performed immunoprecipitation (IP) and WB analyses of this mixture with anti-BACE1 and anti-biotin antibodies to confirm that TAT-APPsweBBP, but not TAT, specifically binds to BACE1.

[4] = WB 6E10, listed as TAT-APPsweBBP

YGRKKRRQRRREISEVNLDAEFR [APPsweBBP conjugated with the membrane fusion fragment of HIV-1 Tat protein]
total cerebral soluble Aβ (Aβs) by WB (5XFAD mice [1]; [4]): much lower levels; also recorded: reduced total cerebral soluble Aβ
β-CTF by WB (5XFAD mice [1]; [4]): much lower levels; also recorded: reduced
band density ratio of β-CTF to holo-APP (5XFAD mice [1]; densitometry, versus TAT and PBS, **P < 0.01): significantly reduces the band density ratios of β-CTF to holo-APP, compared to TAT- and PBS-treatments (**P < 0.01)
total APP expression by WB (5XFAD mice [1]; listed as TAT-APPsweBBP): without notable alteration on total APP expression; also recorded: without significantly altering total APP expression
rotarod latency to fall / motor performance (5XFAD mice [2]): no differences between treatment groups on each day; also recorded: tended to enhance motor activity in 5XFAD mice, as shown by increased latency to fall, but this did not reach a statistical level of significance
binding to BACE1 (co-immunoprecipitation) [3]: binds to BACE1 protein; also recorded: strongly binds to
